Test [1] has as its system Cladosporium cladosporioides. Description: Antifungal activity against Cladosporium cladosporioides after 48 hrs. In kind it is functional.
Test [2] relates to Cladosporium sphaerospermum. As to the kind of experiment: Antifungal activity against Cladosporium sphaerospermum after 48 hrs. The test is classed as functional.
A further test has as its system K562. Description: Cytotoxicity against human K562 cells after 48 hrs by MTT assay. In kind it is functional, cell-based. The settings on record: K562, 48 h. On the technique in general: Formazan colour is commonly taken as a measure of viable cells.
The nature of test [3]: Cytotoxicity against human NALM6 cells after 48 hrs by MTT assay. In kind it is functional, cell-based. The conditions noted are these: NALM-6, 48 h.

These results are taken from ChEMBL document CHEMBL3286278, “Antifungal and cytotoxic 2-acylcyclohexane-1,3-diones from Peperomia alata and P. trineura” (J Nat Prod, 2014).

The term IC50 denotes the concentration at which inhibition is half-maximal. Read a low IC50 as greater potency in that assay.

Regarding `O=C(CCCCCCCCCCCCCCc1ccc2c(c1)OCO2)C1=C(O)CCCC1=O`, the Activity in test [1] and in test [2] was 5 µg each time.

On to `O=C1CCCC(O)=C1C(=O)CCc1ccc2c(c1)OCO2`, for which the Activity in test [1] and in test [2] was 0.5 µg throughout.

In the case of `O=C(CC/C=C/c1ccccc1)C1=C(O)CCCC1=O`, the Activity in test [1] and in test [2] was 0.25 µg in each case.

Take `Clc1ccc(COC(Cn2ccnc2)c2ccc(Cl)cc2Cl)c(Cl)c1` (stereo not given) [MICONAZOLE]: the Activity in test [1] and in test [2] was 1 µg each time.

As for `O=C(CCCCCCCC/C=C/c1ccccc1)C1=C(O)CCCC1=O`, the results for the Activity in test [1] and in test [2] were 5 µg and 25 µg, respectively.

For the compound `CCCCC/C=C\CCCCCCCCC(=O)C1=C(O)CCCC1=O`, the Activity in test [1] came out at 10 µg; in test [2], 25 µg.

`O=C(CCCCCCCCCCCCCCCCc1ccc2c(c1)OCO2)C1=C(O)CCCC1=O`: the Activity in test [1] and in test [2] was 5 µg each time.

For the compound NYSTATIN, the Activity in test [1] and in test [2] was 1 µg each time.

Turning to `CCCCC/C=C\CCCCCCCCC(=O)C1=C(O)CC[C@@H](O)C1=O`, the IC50 worked out at 26 µM in the test on K562 and 14.3 µM in test [3]. For the same compound, the Activity is 1 µg in test [1] and 10 µg in test [2].
